From paper PMC4257678, “Influence of Sampling on the Determination of Warfarin and Warfarin Alcohols in Oral Fluid” (PLoS ONE, 2014)
Like-named read-outs stand apart in the source and are kept apart here.

Assays:
[1] = PBS 25 mM pH 7 / 1-octanol, 25°C, 24 hours, n = 3
Method: The LogKow value at pH = 7 of both diastereoisomers of WAROHs was determined using the standardized OECD guidelines [25]. Briefly, a standard working solution of WAROHs (1000 ng/mL, C1) was prepared in triplicate in the PBS buffer (25 mM at pH = 7) and then mechanically stirred with an equal volume (4 mL) of 1-octanol at 25°C for 24 hours. The phase separation was obtained at room temperature by centrifuging at 5000 rpm for 5 min. […] The concentration in the organic phase was calculated by subtracting C2 and C3 from C1. LogKow at pH = 7 is expressed as the ratio of the compound concentration in the organic phase to that in the aqueous phase.
The value of LogKow at pH = 7 of both diastereoisomers of WAROHs was determined by the standardized shake-flask method. Octanol was added to a working solution of the WAROHs prepared in PBS at pH 7.0.

[2] = not given; remark: listed apart in the source
[3] = parameters: method as in PMID 16867718; details: at 25°C; cited from earlier work
[4] = dissociation constant by HPLC-FLD at different mobile phase pH and methanol content; details: for best aqueous pKa: psKa vs Rwt% extrapolated at zero organic content
Method: In brief, a standard working solution of WAROHs (1060 ng/mL) was prepared in a PBS buffer (25 mM at different pH value) and then analyzed in triplicate by HPLC-FLD. This approach is based on the different chromatographic behaviour of dissociated and non-dissociated forms of each compound at different pH values of the mobile phase. The pH was lowered in steps of 1 unit and ranged from 7.0 to 3.0. To reach the required pH, different aliquots of H3PO4 (85 wt% in H2O) were added to the mobile phase. The resulting pH was further checked by a pH-meter.
The capacity factor to pH variation ratio (Δk’/ΔpH) of both diastereoisomers was determined with different contents of organic modifiers (Rwt%: 40, 50 and 60) in the methanol-PBS mobile phase. The cosolvent dissociation constant (psKa) value was calculated by equation 1 [27]: [drawing 1] (1) where k’ HA and k’ A are the capacity factors of non-dissociate and dissociate forms, respectively. The pH and k’ values were defined as the corresponding point with a […] slope in the Δk’/ΔpH plot.
The dissociation constant (pKa) of both diastereoisomers of WAROHs was determined at different pH values of the mobile phase by the HPLC-FLD method by varying the organic solvent/water ratio.

[5] = parameters: method as in PMID 16867718; details: T = 25°C; cited from earlier work
[6] = 14 patients undergoing WAR therapy

CC(=O)CC(c1ccccc1)c1c(O)c2ccccc2oc1=O (stereo not drawn) [WAR, 3-(α-acetonylbenzyl)-4-hydroxycoumarin, reference compound]
LogKow at pH = 7 [1]: 0.94 ± 0.05 | concentration in non-stimulated OF samples (mean ± s.d.) (human, in vivo): 3 ± 2 ng/mL | concentration in non-stimulated OF samples (range) (human, in vivo): 1 to 5 ng/mL | concentration in stimulated OF samples (mean ± s.d.) (human, in vivo): 6 ± 3 ng/mL | concentration in stimulated OF samples (range) (human, in vivo): 1 to 14 ng/mL | concentration in pooled patients oral fluid sample (human, in vivo, po): 9.8 ng/mL | total plasma concentration (mean ± s.d.) ([2]; human, in vivo): 1300 ± 500 ng/mL | total plasma concentration (range) ([2]; human, in vivo): 400 to 2000 ng/mL | unbound plasma concentration (mean ± s.d.) ([2]; human, in vivo): 9 ± 4 ng/mL | unbound plasma concentration (range) ([2]; human, in vivo): 3 to 17 ng/mL | LogP [3]: 2.82 ± 0.06 | pKa [4]: 5.42 ± 0.03 | pKa [5]: 5.15 ± 0.04

CC(O)CC(c1ccccc1)c1c(O)c2ccccc2oc1=O (centres unmarked) [RS/SR-warfarin alcohols]
LogKow at pH = 7 [1]: 0.93 ± 0.01 | concentration in non-stimulated OF samples (mean ± s.d.) [6]: 3 ± 2 ng/mL | concentration in non-stimulated OF samples (range) [6]: 1 to 5 ng/mL | concentration in stimulated OF samples (mean ± s.d.) [6]: 3 ± 2 ng/mL | concentration in stimulated OF samples (range) [6]: 1 to 6 ng/mL | concentration in pooled patients oral fluid sample (Figure 2E, extracted PPOFS): 10.1 ng/mL | total plasma concentration (mean ± s.d.) [2, 6]: 600 ± 300 ng/mL | total plasma concentration (range) [2, 6]: 100 to 1100 ng/mL | unbound plasma concentration (mean ± s.d.) [2, 6]: 5 ± 3 ng/mL | unbound plasma concentration (range) [2, 6]: 1 to 10 ng/mL | best aqueous pKa [4]: 5.73 ± 0.03

CC(O)CC(c1ccccc1)c1c(O)c2ccccc2oc1=O (centres unmarked) [RR/SS-warfarin alcohols]
LogKow at pH = 7 [1]: 0.83 ± 0.01 | concentration in pooled patients oral fluid sample (Figure 2E, extracted PPOFS): 0.6 ng/mL | total plasma concentration (mean ± s.d.) [2, 6]: 30 ± 20 ng/mL | total plasma concentration (range) [2, 6]: 13 to 82 ng/mL | best aqueous pKa [4]: 6.55 ± 0.04
